Laboratory results published in patent publication EP0497740B1, “Benzyloxyphenyl derivatives” (SANDOZ LTD., priority 1991, dated 1992).

Assays:
[1] = system: oxazolone-induced allergic contact dermatitis; test: Inhibition of oxazolone-induced allergic contact dermatitis in the mouse (pinnal swelling, topical application); assay type: in vivo; details: test 3: mouse, two applications, concentration of 0.4 %, relative to vehicle (ethanol/acetone 7:3)
Description: 3. Inhibition of oxazolone-induced allergic contact dermatitis in the mouse
Sensitization is induced by a single application of 2 % 6 oxazolone (10 µl) onto the abdominal skin of mice (8 animals per group). Hypersensitivity reaction causing pinnal swelling is elicited by a second exposure to 2 % oxazolone applied to one pinna of each animal after 8 days.
Inhibition of pinnal swelling is achieved by two topical applications of test compound (30 minutes before and after elicitation of the challenge reaction). Efficacy is determined by the difference of pinnal weights of animals treated with the drug and with the vehicle (ethanol/acetone 7:3), respectively, and expressed in % of swelling with vehicle application alone.

[2] = system: HACAT keratinocytes; test: Inhibition of TGFa- or EGF-specific proliferation of HACAT keratinocytes (3H-thymidine incorporation); assay type: cell-based; details: test 1: HaCaT cells stimulated with recombinant human TGFa or EGF, two days
Description: 1. Inhibition of TGFa- or EGF-specific proliferation of HACAT keratinocytes:
The spontaneously immortalized aneuploid human keratinocyte HaCaT cell line, which has a transformed phenotype in vitro but remains non-tumorigenic, is grown in DMEM H21 medium supplemented with 5 % FCS and 2.5 % glutamine. 5 ml aliquots of a cell suspension adjusted to 2 x 10^5 cells/ml are seeded into 50 ml culture flasks and the cells are cultured for 2 to 3 days in DMEM medium supplemented with 5 % FCS. When 90-100 % confluence is attained cells are trypsinized, washed, suspended in KBM medium supplemented with 0.2 % dialyzed FCS (Gibco) and Ca^++ to a final concentration of 0.06 mM, and 2 x 10^4 cells are seeded into 96 wells cell culture plates. Proliferation is stimulated with recombinant human TGFa or EGF (reconstituted in 0.1 M acetic acid) at various concentrations in the presence of inhibitors. Cells are grown for two days at 37 / 5 % CO2. During the last 16 hours incorporation of ^3H-thymidine (1 µ.Ci/well) is performed. Cells are washed with ice-cold PBSdef. 3 times and trichloroacetic acid twice, solubilized in 100 µl of 0.1 N NaOH containing 1 % SDS, and radioactivity is counted. Inhibition of cell proliferation is expressed as % of the control.

Row | SMILES | inhibition of swelling [1] [%] | IC50 ([2]; Homo sapiens, HaCaT) [µM] | IC50 [2] [µM]
1 | COC(=O)c1cc(OCc2cc(OC)ccc2OC)ccc1O [Example 1, 5-(2,5-Dimethoxybenzyloxy)-2-hydroxybenzoic acid methyl ester] | 46 | < 1 | –
2 | O=c1c(-c2ccc(O)cc2)coc2cc(O)cc(O)c12 [genistein] | – | 5 to 50 | 5
3 | N#CC(=Cc1ccc(O)c(O)c1)C(N)=S [AG213] | – | – | 5 to 50
